Data: patent US8283353B2, “Fused ring compound and use thereof” (Takeda Pharmaceutical Company Limited, priority 2009, dated 2012)
Structures can show the parent of a compound that is named as a salt.

Experiments:
Male SHRs = assay: Antihypertensive effect: mean blood pressure in male SHRs after oral administration; type: in vivo, rat; settings: male SHR, dose 3 mg/kg, MBP measured during 24 hours
Method: Male SHRs (28-40 weeks old, Japan SLC, Inc., Japan) were anesthetized with sodium pentobarbital (50 mg/kg, i.p.). The left femoral artery was cannulated with a polyethylene catheter filled with saline comprising heparin (200 U/mL). The catheter was exteriorized at the back of the neck and each SHR was individually housed in a cage and left two or four days to recover. The mean blood pressure (MBP) was obtained from the systemic blood pressure which was monitored from the femoral artery using a pressure transducer connected to a polygraph system (Nihon Kohden Corporation). The heart rate was measured from the blood pressure pulse intervals. The rats which had MBP over 150 mmHg were used for the experiment. When the blood pressure had stabilized, vehicle (0.5 w/v % methylcellulose) or compounds were orally administered. All compounds were suspended in 0.5 w/v % methylcellulose and orally administered at a volume of 2 mL/kg. The MBP was measured during 24 hours after the administration.

human AT1 receptor = target: T1, human AT1 receptor (Homo sapiens, UniProt P30556); assay: AT1 receptor antagonistic activity: [125I]-angiotensin II binding assay on human AT1 receptor-expressing CHO-K1 cellular membrane fraction; settings: 22.5 pM [125I]-angiotensin II, 1 hr room temperature
T1 construct: expressed in transfected cells; membrane fraction
T1 sequence (P30556 1-359): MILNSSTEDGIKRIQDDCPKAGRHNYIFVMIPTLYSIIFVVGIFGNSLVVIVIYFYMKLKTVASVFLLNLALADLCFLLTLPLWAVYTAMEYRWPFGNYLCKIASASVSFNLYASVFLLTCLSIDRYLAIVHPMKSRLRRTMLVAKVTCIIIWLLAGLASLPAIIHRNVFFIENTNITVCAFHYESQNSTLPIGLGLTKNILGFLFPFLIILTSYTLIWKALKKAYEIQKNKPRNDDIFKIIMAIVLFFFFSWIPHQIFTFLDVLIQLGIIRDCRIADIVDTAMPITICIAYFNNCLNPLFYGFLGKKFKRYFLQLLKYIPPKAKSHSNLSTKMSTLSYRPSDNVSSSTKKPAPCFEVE
Outline: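 Competition binding used radiolabelled angiotensin II on stably transfected CHO-K1 membrane fractions in Tris pH 7.4/MgCl2 buffer, optionally containing 0.3 mg/mL fatty acid-free BSA, 1 hr at room temperature. Filtration onto GF/C separated bound tracer, and nonspecific binding was measured with candesartan.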

human PPARγ = target: T2, human PPARγ (Homo sapiens, UniProt P37231); assay: PPARγ agonistic activity: luciferase reporter assay in PPARγ:RXRα:4ERPP/CHO-K1 cells; type: cell-based; settings: CHO-K1, test compound 10^−6 M; luciferase activity of control compound X (1 μM) = 100%, non-administration group = 0%
T2 construct: expressed in transfected cells
T2 sequence (P37231 1-477 isoform P37231-2): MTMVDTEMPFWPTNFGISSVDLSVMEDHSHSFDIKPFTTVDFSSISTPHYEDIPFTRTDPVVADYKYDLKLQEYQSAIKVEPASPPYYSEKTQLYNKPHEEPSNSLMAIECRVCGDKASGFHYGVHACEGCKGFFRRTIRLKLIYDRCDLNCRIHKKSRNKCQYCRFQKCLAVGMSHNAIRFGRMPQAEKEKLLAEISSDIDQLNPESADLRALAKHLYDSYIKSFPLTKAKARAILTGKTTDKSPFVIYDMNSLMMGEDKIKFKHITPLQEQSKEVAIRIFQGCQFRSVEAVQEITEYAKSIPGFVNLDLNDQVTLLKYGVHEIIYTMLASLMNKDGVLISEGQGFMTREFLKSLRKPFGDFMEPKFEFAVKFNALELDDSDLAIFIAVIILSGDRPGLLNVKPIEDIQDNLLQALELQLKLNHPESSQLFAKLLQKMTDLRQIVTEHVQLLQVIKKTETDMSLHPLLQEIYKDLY
T2 sequence (P19793 1-462 partner): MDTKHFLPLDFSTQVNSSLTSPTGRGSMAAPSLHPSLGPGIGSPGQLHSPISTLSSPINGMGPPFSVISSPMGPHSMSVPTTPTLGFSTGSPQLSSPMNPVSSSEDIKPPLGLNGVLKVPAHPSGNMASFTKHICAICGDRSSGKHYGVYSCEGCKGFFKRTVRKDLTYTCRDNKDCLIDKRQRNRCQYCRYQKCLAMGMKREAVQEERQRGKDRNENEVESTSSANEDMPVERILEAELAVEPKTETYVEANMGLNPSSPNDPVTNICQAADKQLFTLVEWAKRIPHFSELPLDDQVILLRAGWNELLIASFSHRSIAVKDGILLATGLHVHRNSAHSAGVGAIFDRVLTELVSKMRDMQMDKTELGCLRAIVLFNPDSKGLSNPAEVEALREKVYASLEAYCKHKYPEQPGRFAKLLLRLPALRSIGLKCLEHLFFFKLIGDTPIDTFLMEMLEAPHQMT
Outline: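 Activity is expressed relative to untreated cells (0%) and 1 μM reference compound X (100%), from luciferase luminescence. Reporter line: PPARγ:RXRα:4ERPP/CHO-K1, exposed to compound for one day at 37 °C in F12 medium containing 0.1% fatty-acid-free BSA.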

| Compound | Maximum MBP reduction (mmHg) (Male SHRs) | IC50 (human AT1 receptor) | activation at 1 µM (human PPARγ) |
| --- | --- | --- | --- |
| (−)-6-{[3-fluoro-2′-(5-oxo-4,5-dihydro-1,2,4-oxadiazol-3-yl)biphenyl-4-yl]methyl}-4-[trans-4-(2-hydroxy-1,2-dimethylpropoxy)cyclohexyl]-7-propyl[1,2,4]triazolo[1,5-a]pyrimidin-5(4H)-one potassium salt (retention time: long) [Example 459] | 64 mmHg |  |  |
| CCCc1c(Cc2ccc(-c3ccccc3-c3noc(=O)[nH]3)cc2)c(=O)n([C@H]2CC[C@H](OCC(C)(C)O)CC2)c2ccnn12 [Example 415, 4-[trans-4-(2-hydroxy-2-methylpropoxy)cyclohexyl]-6-{[2′-(5-oxo-4,5-dihydro-1,2,4-oxadiazol-3-yl)biphenyl-4-yl]methyl}-7-propylpyrazolo[1,5-a]pyrimidin-5(4H)-one potassium salt] | 63 mmHg |  |  |
| CCCc1c(Cc2ccc(-c3ccccc3-c3noc(=O)[nH]3)cc2)c(=O)n(C(C)/C(C)=N/OCC)c2nc(C)nn12 (stereo not shown) [Example 114, 4-[(2E)-2-(ethoxyimino)-1-methylpropyl]-2-methyl-6-{[2′-(5-oxo-4,5-dihydro-1,2,4-oxadiazol-3-yl)biphenyl-4-yl]methyl}-7-propyl[1,2,4]triazolo[1,5-a]pyrimidin-5(4H)-one] |  | 2 nM | 16% |
| CCCc1c(Cc2ccc(-c3ccccc3-c3noc(=O)[nH]3)cc2)c(=O)n([C@H]2CC[C@H](OCCCO)CC2)c2ncnn12 [Example 186, 4-[trans-4-(3-hydroxypropoxy)cyclohexyl]-6-{[2′-(5-oxo-4,5-dihydro-1,2,4-oxadiazol-3-yl)biphenyl-4-yl]methyl}-7-propyl[1,2,4]triazolo[1,5-a]pyrimidin-5(4H)-one] |  | 2.1 nM | 24% |
| CCCCc1c(Cc2ccc(-c3ccccc3-c3noc(=O)[nH]3)cc2)c(=O)n([C@H]2C[C@@H](C)O[C@@H](C)C2)c2ncnn12 [Example 139, 7-butyl-4-[(2R,4r,6S)-2,6-dimethyltetrahydro-2H-pyran-4-yl]-6-{[2′-(5-oxo-4,5-dihydro-1,2,4-oxadiazol-3-yl)biphenyl-4-yl]methyl}[1,2,4]triazolo[1,5-a]pyrimidin-5(4H)-one] |  | 1.7 nM | 6% |
| CCCc1c(Cc2ccc(-c3ccccc3-c3noc(=O)[nH]3)cc2)c(=O)n([C@H]2CC[C@](O)(COC)CC2)c2ncnn12 [Example 297, 4-[cis-4-hydroxy-4-(methoxymethyl)cyclohexyl]-6-{[2′-(5-oxo-4,5-dihydro-1,2,4-oxadiazol-3-yl)biphenyl-4-yl]methyl}-7-propyl[1,2,4]triazolo[1,5-a]pyrimidin-5(4H)-one] |  | 2.8 nM | 53% |
